Results as given in ChEMBL document CHEMBL1124222 (J Med Chem, 1988).

What follows are compounds tested against T1, D(2) dopamine receptor (Rattus norvegicus, UniProt P61169) (assay: Affinity constant of compound was evaluated in rat striatum tissue preparation.).
Type: tissue-based

T1 sequence (P61169 whole entry): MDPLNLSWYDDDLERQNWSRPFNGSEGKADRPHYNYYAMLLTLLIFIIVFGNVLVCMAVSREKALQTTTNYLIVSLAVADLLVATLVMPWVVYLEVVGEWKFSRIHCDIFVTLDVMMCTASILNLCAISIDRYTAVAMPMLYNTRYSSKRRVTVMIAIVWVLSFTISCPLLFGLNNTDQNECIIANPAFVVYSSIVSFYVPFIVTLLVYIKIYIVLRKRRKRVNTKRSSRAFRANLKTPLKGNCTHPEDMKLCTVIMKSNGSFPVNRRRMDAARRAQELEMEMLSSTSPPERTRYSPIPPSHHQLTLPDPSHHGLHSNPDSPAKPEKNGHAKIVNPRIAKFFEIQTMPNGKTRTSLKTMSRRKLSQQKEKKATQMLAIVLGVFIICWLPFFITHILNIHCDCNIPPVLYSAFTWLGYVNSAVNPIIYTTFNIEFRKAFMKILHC

Compound	Ki [nM]
CCN1CCC[C@H]1CNC(=O)c1c(O)cccc1OC	31.1
CCN1CCCC1CNC(=O)c1c(OC)ccc(I)c1O (stereo unspecified)	0.43

Each compound was assayed against T1, D(2) dopamine receptor (assay: Inhibitory constant against binding of [125I]- IBZM to rat striatal membrane).
Design: species or system Striatum

Compound	Ki [nM]
O=C(c1ccc(F)cc1)C1CCN(CCn2c(=O)[nH]c3ccccc3c2=O)CC1 [KETANSERIN]	359
CCN1CCC[C@@H]1CNC(=O)c1c(OC)ccc(I)c1O	30.3

Results, then the compound that gave them:

Ki [nM]	Compound
0.633	CCN1CCC[C@H]1CNC(=O)c1c(OC)ccc(I)c1O [IOLOPRIDE]
31.1	CCN1CCC[C@H]1CNC(=O)c1c(O)cccc1OC
